Measured values as given in patent publication US5536714A, “Steroid derivatives for the treatment of prostatic hypertrophy their preparation and uses” (Sankyo Company, Limited, priority 1992, dated 1996).

These compounds were tested on Rat 5α-Reductase (assay: Rat 5α-Reductase Inhibition Test). Conditions: final concentration of test compound 10^-8 M; 1 μM [14C]-testosterone; pH 6.5; 37° C., 15 to 30 minutes.
Format: biochemical, rat (Sprague-Dawley, ventral prostate)
Protocol: The tissue was then homogenized, first with a Polytron (trade mark) homogenizer (manufactured by Kinematica, GmbH) and then with a Teflon-glass homogenizer (Teflon is a trade mark). The suspension of homogenized prostate tissue was then centrifuged (140000×g, 60 minutes), and the sediment was suspended by adding approximately a 5-fold amount of the above buffer. The suspension was again centrifuged (140000×g, 60 minutes). […] This was adjusted to a protein concentration of 30 to 40 mg/ml by the addition of the buffer described above, and the preparation was then stored frozen at -80° C. Measurement of the amount of protein was performed using the Bio-Rad Protein Assay method, and bovine γ-globulin (Cohn Fraction II, manufactured by Sigma) was used for the protein reference standard. […] The mixture was then incubated at 37° C. for 15 to 30 minutes. Testing was also performed on a control group by adding solvent only. Following incubation, 2 ml of ethyl acetate, containing 10 μg each of testosterone, 5α-dihydrotestosterone and androstenedione, were added to stop the reaction. […] The steroid was dissolved in 40 μl of ethyl acetate and spotted onto a thin layer chromatographic plate (LK5DF silica plate, manufactured by Whatman). The plate was then developed twice at room temperature with a mixture of ethyl acetate and cyclohexane (1:1 by volume). The steroid fraction was identified with ultraviolet light and stained using an aqueous solution of 1% w/v […] and 10% w/v sulfuric acid. The radioactivity profiles of the thin layer chromatographic plate were measured using a bio-image analyzer (manufactured by Fuji Photo Film). Enzyme activity was expressed as the proportion of [^14 C]-5α-dihydrotestosterone that was converted from the [^14 C]-testosterone (conversion rate (%)) added. […]

First: CC(C)(C)NC(=O)[C@H]1CC[C@H]2[C@@H]3CC=C4C=C(C(=O)O)CC[C@]4(C)[C@H]3CC[C@]12C [Compound B, 17β-t-butylcarbamoylandrosta-3,5-diene-3-carboxylic acid, reference compound]
Second: Cc1ccc(C(C)(C)NC(=O)[C@H]2CC[C@H]3[C@@H]4CC=C5C=C(C(=O)O)CC[C@]5(C)[C@H]4CC[C@]23C)cc1 [Example 11, 17β-{N-[1-(4-Methylphenyl)-1-methylethyl]carbamoyl}androsta-3,5-diene-3-carboxylic acid]
The “Inhibitory Activity” value of the first is lower: 28.1% for the first, 73.5% for the second.

First: C[C@]12CC[C@H]3[C@@H](CC=C4C=C(C(=O)O)CC[C@@]43C)[C@@H]1CC[C@@H]2C(=O)NC(c1ccccc1)c1ccccc1 [Example 1, 17β-[N-(Diphenylmethyl)carbamoyl]androsta-3,5-diene-3-carboxylic acid]
Second: C[C@]12CC[C@H]3[C@@H](CC=C4C=C(C(=O)O)CC[C@@]43C)[C@@H]1CC[C@@H]2C(=O)NC(Cc1ccccc1)c1ccccc1 (stereo partly drawn) [Example 6, 17β-[N-(1,2-Diphenylethyl)carbamoyl]androsta-3,5-diene-3-carboxylic acid]
The “Inhibitory Activity” value of the first is lower: 70.6% for the first, 89.4% for the second.

First: COc1ccc(C(C)(C)NC(=O)[C@H]2CC[C@H]3[C@@H]4CC=C5C=C(C(=O)O)CC[C@]5(C)[C@H]4CC[C@]23C)cc1 [Example 2, 17β-{N-[1-(4-Methoxyphenyl)-1-methylethyl]carbamoyl}androsta-3,5-diene-3-carboxylic acid]
Second: CCOc1ccc(C(C)(C)NC(=O)[C@H]2CC[C@H]3[C@@H]4CC=C5C=C(C(=O)O)CC[C@]5(C)[C@H]4CC[C@]23C)cc1 [Example 13, 17β-{N-[1-(4-Ethoxyphenyl)-1-methylethyl]carbamoyl}androsta-3,5-diene-3-carboxylic acid]
The “Inhibitory Activity” value of the first is lower: 70.6% for the first, 84.3% for the second.

First: COc1ccc(C(C)(C)NC(=O)[C@H]2CC[C@H]3[C@@H]4CC=C5C=C(C(=O)O)CC[C@]5(C)[C@H]4CC[C@]23C)cc1OC [Example 7, 17β-{N-[1-(3,4-Dimethoxyphenyl)-1-methylethyl]carbamoyl}androsta-3,5-diene-3-carboxylic acid]
Second: COc1cccc(C(C)(C)NC(=O)[C@H]2CC[C@H]3[C@@H]4CC=C5C=C(C(=O)O)CC[C@]5(C)[C@H]4CC[C@]23C)c1 [Example 9, 17β-{N-[1-(3-Methoxyphenyl)-1-methylethyl]carbamoyl}androsta-3,5-diene-3-carboxylic acid]
The “Inhibitory Activity” value of the first is lower: 70.3% for the first, 77.9% for the second.

Compared with CCC(CC)(NC(=O)[C@H]1CC[C@H]2[C@@H]3CC=C4C=C(C(=O)O)CC[C@]4(C)[C@H]3CC[C@]12C)c1ccccc1 [Example 12, 17β-[N-(1-Ethyl-1-phenylpropyl)carbamoyl]androsta-3,5-diene-3-carboxylic acid], C[C@]12CC[C@H]3[C@@H](CC=C4C=C(C(=O)O)CC[C@@]43C)[C@@H]1CC[C@@H]2C(=O)NC(c1ccccc1)c1ccc(O)cc1 (stereo partly drawn) [Example 15, 17β-[N-(4-Hydroxybenzhydryl)carbamoyl]androsta-3,5-diene-3-carboxylic acid] is lower in “Inhibitory Activity” value: 74.0% for the first, 73.3% for the second.

Compared with C[C@]12CC[C@H]3[C@@H](CC=C4C=C(C(=O)O)CC[C@@]43C)[C@@H]1CC[C@@H]2C(=O)NC(c1ccc(F)cc1)c1ccc(F)cc1 [Example 16, 17β-[N-(4,4'-Difluorobenzhydryl)carbamoyl]androsta-3,5-diene-3-carboxylic acid], COc1ccc(C(NC(=O)[C@H]2CC[C@H]3[C@@H]4CC=C5C=C(C(=O)O)CC[C@]5(C)[C@H]4CC[C@]23C)c2ccccc2)cc1 (stereo partly drawn) [Example 21, 17β-[N-(4-Methoxybenzhydryl)carbamoyl]androsta-3,5-diene-3-carboxylic acid] is higher in “Inhibitory Activity” value: 81.7% for the first, 84.9% for the second.

For C[C@]12CC[C@H]3[C@@H](CC=C4C=C(C(=O)O)CC[C@@]43C)[C@@H]1CC[C@@H]2C(=O)N(Cc1ccccc1)Cc1ccccc1 [Example 25, 17β-(N,N-Dibenzylcarbamoyl)androsta-3,5-diene-3-carboxylic acid], the “Inhibitory Activity” value was 79.3%.
